Results on nine compounds are retold here after patent US9676756B2 (PORTOLA PHARMACEUTICALS, INC., priority 2012, dated 2017).

In assay [1] the target is T1, full length active recombinant SYK enzyme (Homo sapiens, UniProt P43405).
T1 construct: full length active recombinant SYK enzyme (Millipore, CA); purchased Millipore
Description: SYK tyrosine phosphorylation activity, LANCE TR-FRET kinase assay. The settings on record: 1 nM SYK, 100 μM ATP, 1 hour at room temperature. It is filed as biochemical. Summed up:
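Full-length active SYK (1 nM) phosphorylates 550 nM biotinylated substrate with 100 μM ATP in Tris pH 7.5, MgCl2, DTT, 3% DMSO, 1 h at room temperature. EDTA stop with Eu-anti-phosphotyrosine/SA-APC TR-FRET detection, 1 h. IC50 by non-linear regression.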
On the technique in general: TR-FRET usually uses a lanthanide donor and a delayed reading to cut background.

Another assay deals with T2, JAK3 (Homo sapiens, UniProt P52333).
T2 construct: 5 μl of catalytic domain recombinant Kinase enzyme+Tyr peptide substrate (Invitrogen, CA); purchased Invitrogen
T2 sequence (P52333 822-1111 limits assumed): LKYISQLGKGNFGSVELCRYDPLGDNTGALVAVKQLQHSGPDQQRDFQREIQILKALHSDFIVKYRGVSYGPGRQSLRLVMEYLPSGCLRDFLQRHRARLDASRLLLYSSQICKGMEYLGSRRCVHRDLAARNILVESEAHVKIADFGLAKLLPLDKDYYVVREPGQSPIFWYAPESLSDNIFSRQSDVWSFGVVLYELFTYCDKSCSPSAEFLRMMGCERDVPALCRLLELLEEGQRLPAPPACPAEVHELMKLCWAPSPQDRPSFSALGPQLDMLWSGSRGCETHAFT
In words: JAK tyrosine phosphorylation activity, Z'-LYTE FRET kinase assay. The assay is classed as biochemical. The settings on record: catalytic domain recombinant kinase, Tyr6 peptide. Summed up:
(§1)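 Catalytic-domain recombinant kinases with Tyr6 peptide substrate and ATP, 1% DMSO, reacted 1 h at room temperature, then protease development 1 h. FRET read at ex 400 nm, em 445/520 nm; inhibition from percent substrate phosphorylation versus no-inhibitor control, IC50 by 4-parameter logistic fit.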

In a further assay the target is T3, JAK1 (Homo sapiens, UniProt P23458).
T3 construct: 5 μl of catalytic domain recombinant Kinase enzyme+Tyr peptide substrate (Invitrogen, CA); purchased Invitrogen
T3 sequence (P23458 875-1153 limits assumed): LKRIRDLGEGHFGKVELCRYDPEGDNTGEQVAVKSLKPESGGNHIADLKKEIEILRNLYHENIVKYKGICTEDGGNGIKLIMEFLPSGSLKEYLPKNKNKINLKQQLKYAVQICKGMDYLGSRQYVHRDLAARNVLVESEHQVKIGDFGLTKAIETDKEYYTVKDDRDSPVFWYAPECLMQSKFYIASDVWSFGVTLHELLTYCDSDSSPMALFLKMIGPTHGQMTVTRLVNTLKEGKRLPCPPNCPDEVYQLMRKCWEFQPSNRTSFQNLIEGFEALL
Described as above. Particulars: catalytic domain recombinant kinase, Tyr6 peptide; for IC50: read-out: JAK1 IC50 % Inhibition. The assay is classed as biochemical. In a few lines:
as §1

The target of another assay is T4, JAK2 (Homo sapiens, UniProt O60674).
T4 construct: 5 μl of catalytic domain recombinant Kinase enzyme+Tyr peptide substrate (Invitrogen, CA); purchased Invitrogen
T4 sequence (O60674 849-1124 limits assumed): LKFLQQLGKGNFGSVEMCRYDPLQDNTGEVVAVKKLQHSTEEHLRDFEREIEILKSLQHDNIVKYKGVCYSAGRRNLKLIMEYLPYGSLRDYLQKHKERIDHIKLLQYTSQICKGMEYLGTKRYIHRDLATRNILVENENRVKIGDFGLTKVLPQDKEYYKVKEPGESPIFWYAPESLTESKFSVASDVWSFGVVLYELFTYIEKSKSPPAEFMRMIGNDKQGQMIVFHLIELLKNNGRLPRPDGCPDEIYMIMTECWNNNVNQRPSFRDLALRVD
The description is as above. Particulars: catalytic domain recombinant kinase, Tyr6 peptide. The assay is classed as biochemical. In a few lines: as §1

A further assay relates to JAK kinases. The settings on record: cited from earlier work.
The subject of assay [2] is lymphoma cell lines and primary human lymphoma samples. Particulars: cited from earlier work.
In a further assay the test system is Src kinsase. The settings on record: cited from earlier work.
Assay [3] deals with FcεR1 and BCR induced Syk activation. The settings on record: cited from earlier work.
Assay [4] has as its system refractory NHL and chronic lymphocytic leukemia. The settings on record: phase II; cited from earlier work.
Setting [5] is: read-out: Syk IC50 % Inhibition.

The structures appear in SMILES notation. Where two headings read alike, the source gives them in different places. Some results are limits rather than exact numbers.

In the case of `NC(=O)c1cnc(Nc2ccc(C3CCNCC3)cc2)nc1NC1CC1` [Compound 55, 4-(cyclopropylamino)-2-((4-(piperidin-4-yl)phenyl)amino)pyrimidine-5-carboxamide], in assay [1], the 50% inhibitory concentration (IC50) result was “+++ (0.10 uM<IC50<0.01 uM)”. Moreover, the “JAK3 IC50 potency class” value at JAK3 is listed as “++++ (0.01 uM<IC50<0.001 uM)”. In addition, the “JAK1 IC50 potency class” value at JAK1 was “+++ (0.10 uM<IC50<0.01 uM)”. Also, the “JAK2 IC50 potency class” value on JAK2 was “++++ (0.01 uM<IC50<0.001 uM)”.
As to `NC(=O)c1cnc(Nc2ccc(C3=CCNCC3)cc2)nc1NC1CC1` [Compound 56, 4-(cyclopropylamino)-2-((4-(1,2,3,6-tetrahydropyridin-4-yl)phenyl)amino)pyrimidine-5-carboxamide], the IC50 entry in [1] is listed as “+++ (0.10 uM<IC50<0.01 uM)”. Further, the “JAK3 IC50 potency class” value on JAK3 is reported as “++++ (0.01 uM<IC50<0.001 uM)”. The “JAK1 IC50 potency class” value at JAK1 is listed as “+++ (0.10 uM<IC50<0.01 uM)”. The “JAK2 IC50 potency class” value at JAK2 was “+++ (0.10 uM<IC50<0.01 uM)”.
Turning to `CCS(=O)(=O)N1CC=C(c2ccc(Nc3ncc(C(N)=O)c(NC4CC4)n3)cc2)CC1` [Compound 57, 4-(cyclopropylamino)-2-((4-(1-(ethylsulfonyl)-1,2,3,6-tetrahydropyridin-4-yl)phenyl)amino)pyrimidine-5-carboxamide], the IC50 entry in assay [1] is listed as “+++ (0.10 uM<IC50<0.01 uM)”. Besides, on JAK3, the “JAK3 IC50 potency class” value was “++++ (0.01 uM<IC50<0.001 uM)”. The “JAK1 IC50 potency class” value on JAK1 is given as “+++ (0.10 uM<IC50<0.01 uM)”. For the same compound, the “JAK2 IC50 potency class” value on JAK2 is reported as “+++ (0.10 uM<IC50<0.01 uM)”.
In the case of `CC(C)c1ccc(Nc2ncc(C(N)=O)c(NC3CC3)n2)cc1` [Compound 59, 4-(cyclopropylamino)-2-((4-isopropylphenyl)amino)pyrimidine-5-carboxamide], in [1], the IC50 entry was “+++ (0.10 uM<IC50<0.01 uM)”. In addition, on JAK3, the “JAK3 IC50 potency class” value is “+++ (0.10 uM<IC50<0.01 uM)”. The “JAK1 IC50 potency class” value on JAK1 is “++ (1.0 uM<IC50<0.10 uM)”. Moreover, the “JAK2 IC50 potency class” value on JAK2 is given as “++ (1.0 uM<IC50<0.10 uM)”.
`NC(=O)c1cnc(Nc2ccc(C3CCNCC3)cc2)cc1NC1CC1` [Compound 63, 4-(cyclopropylamino)-6-((4-(piperidin-4-yl)phenyl)amino)nicotinamide]: the values for the concentration for half-maximal inhibition (IC50) entry (in [1]; at JAK1) were “++ (1.0 uM<IC50<0.10 uM)” and greater than 1000 nM, respectively. For the same compound, at JAK3, the “JAK3 IC50 potency class” value was “++ (1.0 uM<IC50<0.10 uM)”. The “JAK2 IC50 potency class” value at JAK2 was “++ (1.0 uM<IC50<0.10 uM)”.
Consider `CCS(=O)(=O)N1CCN(c2ccc(Nc3ncc(C(N)=O)c(NC4CC4)n3)nc2)CC1` [Compound 67, 4-(cyclopropylamino)-2-((5-(4-(ethylsulfonyl)piperazin-1-yl)pyridin-2-yl)amino)pyrimidine-5-carboxamide], for which the IC50 in assay [1] (setting [5]) was greater than 1000 nM. Also, on JAK3, the “JAK3 IC50 potency class” value is given as “++ (1.0 uM<IC50<0.10 uM)”. Besides, the “JAK1 IC50 potency class” value at JAK1 is “++ (1.0 uM<IC50<0.10 uM)”. Also, on JAK2, the “JAK2 IC50 potency class” value is reported as “++ (1.0 uM<IC50<0.10 uM)”.
Regarding `NC(=O)c1cnc(NC2CC2)cc1Nc1ccc(C2CCNCC2)cc1` [Compound 68, 6-(cyclopropylamino)-4-((4-(piperidin-4-yl)phenyl)amino)nicotinamide], the concentration for half-maximal inhibition (IC50) (in assay [1] (setting [5]); on JAK3 (read-out: JAK3 IC50 % Inhibition); on JAK1; at JAK2 (read-out: JAK2 IC50 % Inhibition)) was greater than 1000 nM throughout.
Take `CS(=O)(=O)N1CCN(c2ccc(Nc3ncc(C(N)=O)c(NC4CC4)n3)cc2Cl)CC1` [Compound 69, 2-((3-chloro-4-(4-(methylsulfonyl)piperazin-1-yl)phenyl)amino)-4-(cyclopropylamino)pyrimidine-5-carboxamide]: the IC50 entry in assay [1] is reported as “+++ (0.10 uM<IC50<0.01 uM)”. Moreover, the “JAK3 IC50 potency class” value on JAK3 was “++++ (0.01 uM<IC50<0.001 uM)”. The “JAK1 IC50 potency class” value on JAK1 was “+++ (0.10 uM<IC50<0.01 uM)”. Moreover, at JAK2, the “JAK2 IC50 potency class” value is “++++ (0.01 uM<IC50<0.001 uM)”.
Regarding `COc1cc(Nc2ncc(F)c(Nc3ccc4c(n3)NC(=O)C(C)(C)O4)n2)cc(OC)c1OC` [Compound R406], the “activity against JAK kinases” value with JAK kinases is reported as “active”. Moreover, the “effect on BCR signaling” value in assay [2] (lymphoma cell lines and primary human lymphoma samples) is given as “attenuates BCR signaling”. Also, the apoptosis result in assay [2] (lymphoma cell lines) is recorded as “resulting in apoptosis”. Further, the “activity against Src kinase” value in the assay on Src kinsase was “not against”. In assay [3], the “inhibition of ITAM signaling” value is recorded as “inhibit ITAM signaling”. Moreover, the clinical trial outcome in assay [4] is reported as “favorable results”.

In general, IC50 refers to the concentration at which inhibition is half-maximal.
